Measured values as given in PubChem BioAssay (NCI).
Several values for one entry are separate records, joined by “and”; a condition that tells them apart may be missing. Identical values can stand only once.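 Exposure lasted 48 hours, with cells grown in 96-well plates and compounds tested at five concentrations. GI50 = concentration required for 50% inhibition of growth. TGI marks complete inhibition of growth.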

Experiments:
Test in all cases: NCI anticancer screen, dose series, 48 h
[1] = tested on: MOLT-4 leukemia
[2] = tested on: SW-620 colon
[3] = tested on: ACHN renal
[4] = tested on: MCF7 breast
[5] = tested on: SK-MEL-28 melanoma
[6] = tested on: RPMI-8226 leukemia
[7] = tested on: SN12C renal
[8] = tested on: OVCAR-3 ovarian
[9] = tested on: COLO 205 colon
[10] = tested on: NCI-H226 lung

Row | SMILES | TGI [1] | TGI [2] | TGI [3] | TGI [4] | TGI [5] | TGI [6] | TGI [7] | TGI [8] | TGI [9] | TGI [10] | GI50 [3] | GI50 [5] | GI50 [9] | GI50 [1] | GI50 [2] | GI50 [4] | GI50 [6] | GI50 [7] | GI50 [8] | GI50 [10]
1 | CS(=O)(=O)c1ccc(/C=N/NC(N)=S)cc1 | > 100 µM | > 100 µM | > 100 µM | > 100 µM | > 100 µM | > 100 µM | > 100 µM | > 100 µM | > 100 µM | > 100 µM | – | – | – | – | – | – | – | – | – | –
2 | CC1(C)CC23C4COC(=O)C2CCC1C3CC4=O (stereo unspecified) | 63.2 µM | 10.2 µM | – | 47.9 µM | 18.9 µM | 48.6 µM | 42.5 µM | 27.7 µM | 33.6 µM | 20.6 µM | – | – | – | – | – | – | – | – | – | –
3 | CC[C@]1(O)C[C@H]2CN(CCc3c([nH]c4ccccc34)[C@@](C(=O)OC)(c3cc4c(cc3OC)N(C=O)[C@H]3[C@@](O)(C(=O)OC)[C@H](OC(C)=O)[C@]5(CC)C=CCN6CC[C@]43[C@@H]65)C2)C1 | 7.59 µM and 48 µM and 23.3 µM | 141 µM and 18 µM | – | – | 113 µM | – | – | – | 0.0463 µM and 0.22 µM | – | 0.00846 µM | 0.00464 µM | 0.00159 µM | – | – | – | – | – | – | –
4 | CCOc1ccc2nc(-c3ccc(O)cc3)sc2c1 | > 100 µM | > 100 µM | > 100 µM | > 100 µM | – | 2.63 µM | > 100 µM | > 100 µM | > 100 µM | > 100 µM | – | – | – | – | – | – | – | – | – | –
5 | C/C=C/[C@H]1O[C@@](O)([C@@H](C)[C@H](O)[C@H](C)[C@H]2OC(=O)/C(OC)=C/C(C)=C/[C@@H](C)[C@@H](O)[C@@H](CC)[C@@H](O)[C@H](C)C/C(C)=C/C=C/[C@@H]2OC)C[C@H](OC2CC(O)C(O)C(C)O2)[C@@H]1C (stereo partly specified) | < 0.0075 µM | 10.4 µM | 12.8 µM | 8.58 µM | 14.7 µM | < 0.0075 µM | 18.1 µM | 6.27 µM | 3.96 µM | 11.7 µM | – | – | – | – | – | – | – | – | – | –
6 | CCOC(=O)NC(Nc1ncccn1)(C(F)(F)F)C(F)(F)F | > 100 µM | – | > 100 µM | > 100 µM | > 100 µM | > 100 µM | > 100 µM | > 100 µM | – | > 100 µM | – | – | – | – | – | – | – | – | – | –
7 | O=C(O)c1ccccc1NC(c1ccccc1)c1ccc2cccnc2c1O (stereo unspecified) | 34 µM | 46.4 µM | > 100 µM | > 62.4 µM | 44.2 µM | 16.9 µM | > 51.4 µM | 14.4 µM | 80.9 µM | > 28.5 µM | – | – | – | – | – | – | – | – | – | –
8 | N/C(=N\N=C/c1ccccc1O)NO | > 70.2 µM | > 100 µM | – | 26.5 µM | > 100 µM | 27 µM | > 100 µM | > 100 µM | > 27.4 µM | 64.8 µM | – | – | – | – | – | – | – | – | – | –
9 | O=C(Nc1cccc(-n2ccc3c(NC(=O)c4ccccc4)nccc32)c1)c1ccc(N2CCOCC2)c(C(F)(F)F)c1 | > 100 µM | > 100 µM | > 63.5 µM | > 73.5 µM | > 100 µM | 13.1 µM | > 100 µM | 0.0504 µM | – | > 92.9 µM | 0.0853 µM | 0.0436 µM | – | 0.128 µM | 0.0412 µM | 0.0397 µM | 0.0545 µM | 0.134 µM | 0.0233 µM | 0.0827 µM
10 | O=C(O)c1cc2ccccc2c(N=Nc2ccccc2)c1O | > 100 µM | > 100 µM | 69.5 µM | – | > 100 µM | > 100 µM | 74.1 µM | > 100 µM | 47.2 µM | – | – | – | – | – | – | – | – | – | – | –
11 | O=[N+]([O-])c1nc(-c2ccccn2)[nH]c1[N+](=O)[O-] | > 100 µM | > 100 µM | > 100 µM | – | > 100 µM | > 100 µM | > 100 µM | > 100 µM | > 100 µM | > 100 µM | – | – | – | – | – | – | – | – | – | –
12 | O=C1OC[C@@H]2[C@@H](O)CCCCCN12 | > 100 µM | > 100 µM | > 100 µM | > 100 µM | > 100 µM | > 100 µM | > 100 µM | > 100 µM | > 100 µM | > 100 µM | – | – | – | – | – | – | – | – | – | –
13 | COc1cc2c(cc1OC)-c1cc3ccccc3c[n+]1CC2 | > 100 µM | > 100 µM | > 100 µM | > 100 µM | > 100 µM | > 100 µM | > 100 µM | > 100 µM | > 100 µM | > 100 µM | – | – | – | – | – | – | – | – | – | –
14 | CCS(=O)(=O)N1CCC(C(C)n2c(C)c(C(=O)NCc3c(OC)cc(C)[nH]c3=O)c3ccccc32)CC1 (stereo unspecified) | – | > 100 µM | > 100 µM | > 100 µM | > 100 µM | – | – | > 100 µM | > 100 µM | > 100 µM | > 100 µM | > 100 µM | > 100 µM | – | > 100 µM | 25.8 µM | – | – | > 100 µM | > 100 µM
15 | O=C1OC(c2ccccc2)=N/C1=C\c1cccnc1 | > 100 µM | > 100 µM | > 100 µM | > 100 µM | > 100 µM | > 100 µM | – | > 100 µM | – | > 100 µM | – | – | – | – | – | – | – | – | – | –
16 | C/C(CC/C(C)=N/O)=N\O | > 100 µM | > 100 µM | > 100 µM | > 100 µM | > 100 µM | > 100 µM | > 100 µM | > 100 µM | > 100 µM | > 100 µM | – | – | – | – | – | – | – | – | – | –
17 | Fc1ccc2[nH]cc(-c3nc(-c4c[nH]c5ncccc45)cs3)c2c1 | – | > 100 µM | – | > 100 µM | > 100 µM | – | – | – | > 100 µM | – | – | > 100 µM | 1.7 µM | – | > 100 µM | 3.04 µM | – | – | – | –
18 | COC1=C2CC(C)CC(OC)C(O)C(C)/C=C(\C)C(OC(N)=O)C(OC)/C=C\C=C(/C)C(=O)NC(=C(C=NC(C)(C)C)C1=O)C2=O (stereo unspecified) | 12.1 µM | 20.9 µM | – | 35.7 µM | 11.7 µM | 13.5 µM | 21 µM | 13.2 µM | 10.6 µM | 13.8 µM | – | – | – | – | – | – | – | – | – | –
